Experiments:
[1] = test system: cultured primary human fibroblast from MPS patients; test: In vitro MPS model: accumulation of GAG fragments in fibroblasts; assay type: cell-based
Description: Substrate reduction therapy (SRT) is validated for MPS. The non-specific inhibitor of sulfation, sodium chlorate is used herein for such validation. […] In certain instances, in vitro MPS models used herein are based on measuring the accumulation of GAG fragments in cultured primary human fibroblast from MPS patients. In some instances, the GAGs that accumulate in MPS patients are much smaller than normal tissue GAGs and they lack a core protein on their reducing termini. Based on these features the in vitro MPS model used in certain instances herein is based on a method of tagging reducing ends of the GAGs with a detectable label and analyzing (i.e., detecting and/or measuring) the detectable labels using a device suitable for detecting the label (e.g., an HPLC with a fluorimeter).

[2] = test system: FGF2 binding to heparan sulfate in human cervical cancer cells (HeLa); test: FGF2 binding to heparan sulfate in HeLa cells, flow cytometry; assay type: cell-based; settings: various concentrations
Experimental: (§1) FIG. 2 illustrates the impact of 4-(4-(3,4-dimethoxyphenyl)-6-phenylpyrimidin-2-yl)morpholine on the ability of FGF2 to bind to heparan sulfate in human cervical cancer cells (HeLa). FGF2 binding to heparan sulfate is measured by culturing HeLa cells in the presence of the heparan sulfate modulator. After 2 days of growth, the cells are released with 5 mM EDTA and probed with biotinylated FGF2 for 30 minutes on ice. After washing unbound FGF2, bound FGF2 is detected with streptavidin-Cy5-PE. After washing to remove unbound streptavidin-Cy5-PE, the bound probe is quantified using a flow cytometry. The heparan sulfate inhibitors are tested on at least three independent occasions, in duplicate over a dose range. Heparan sulfate specificity is determined by probing with lectins to other glycan classes (chondroitin sulfate, O-linked, N-linked, etc.). FIG. 3 illustrates the impact of 4-(4-(3,4-dimethoxyphenyl)-6-phenylpyrimidin-2-yl)morpholine on the sulfation of heparan sulfate found in human cervical cancer cells (HeLa). The sulfation of heparan sulfate is determined by culturing HeLa cells in the presence of the heparan sulfate modulator. Heparan sulfate is isolated from treated and untreated cells by lysing the cells in 0.1 N NaOH. After neutralization, the cell lysate is treated with pronase to degrade the core proteins. Subsequently, the heparan sulfate is purified on diethylaminoethyl (DEAE) resin, eluted with 1.0 M NaCl, desalted using gel filtration and dried. To characterize the composition of heparan sulfate produced in the presence of the heparan sulfate modulator, the isolate heparan sulfate is digested to disaccharides using a blend of heparin lyase I, II, and III (from flavobacterium heparinum). The disaccharides are quantified by HPLC using a propac PA1 column using known heparan sulfate disaccharides as standards. Specifically, FIG. 3A illustrates the impact of 4-(4-(3,4-dimethoxyphenyl)-6-phenylpyrimidin-2-yl)morpholine on the amount of specific disaccharide units; and FIG. 3B illustrates the impact of 4-(4-(3,4-dimethoxyphenyl)-6-phenylpyrimidin-2-yl)morpholine on the amount of specific glucosamine and uronic acid modifications.
as §1, with “FIG. 4” for “FIG. 2”, “of 7-((3-chlorophenyl)(pyridin-2-ylamino)methyl)-2-methylquinolin-8-ol” for “of 4-(4-(3,4-dimethoxyphenyl)-6-phenylpyrimidin-2-yl)morpholine”, “FIG. 5” for “FIG. 3”, “heparinum). […]” for “heparinum). The disaccharides are quantified by HPLC using a propac PA1 column using known heparan sulfate disaccharides as standards. Specifically, FIG. 3A illustrates the impact of 4-(4-(3,4-dimethoxyphenyl)-6-phenylpyrimidin-2-yl)morpholine on the amount of specific disaccharide units; and FIG. 3B illustrates the impact of 4-(4-(3,4-dimethoxyphenyl)-6-phenylpyrimidin-2-yl)morpholine on the amount of specific glucosamine and uronic acid modifications.”

heparan sulfate = test: Heparan sulfate structure in liver and tumor after sacrifice, SKOV3 model; assay type: in vivo, mice
Experimental: (§2) After sacrifice, the liver and tumor were analyzed for changes in the structure of heparan sulfate.

[3] = test system: 6-O sulfation of heparan sulfate; test: Change in the structure (sulfation) of heparan sulfate in cultured human cells; assay type: cell-based; settings: FIG. 21A
Experimental: FIG. 2 illustrates the impact of 4-(4-(3,4-dimethoxyphenyl)-6-phenylpyrimidin-2-yl)morpholine on the ability of FGF2 to bind to heparan sulfate in human cervical cancer cells (HeLa). FGF2 binding to heparan sulfate is measured by culturing HeLa cells in the presence of the heparan sulfate modulator. After 2 days of growth, the cells are released with 5 mM EDTA and probed with biotinylated FGF2 for 30 minutes on ice. After washing unbound FGF2, bound FGF2 is detected with streptavidin-Cy5-PE. After washing to remove unbound streptavidin-Cy5-PE, the bound probe is quantified using a flow cytometry. The heparan sulfate inhibitors are tested on at least three independent occasions, in duplicate over a dose range. Heparan sulfate specificity is determined by probing with lectins to other glycan classes (chondroitin sulfate, O-linked, N-linked, etc.). FIG. 3 illustrates the impact of 4-(4-(3,4-dimethoxyphenyl)-6-phenylpyrimidin-2-yl)morpholine on the sulfation of heparan sulfate found in human cervical cancer cells (HeLa). The sulfation of heparan sulfate is determined by culturing HeLa cells in the presence of the heparan sulfate modulator. […] The disaccharides are quantified by HPLC using a propac PA1 column using known heparan sulfate disaccharides as standards. […]
as §2

SKOV3 cells = test: Human ovarian cancer model, SKOV3 subcutaneous tumors in female nude mice; assay type: in vivo; settings: 1, 3 and 10 mg/kg/day, two IP injections daily
Experimental: Compound 9 was tested for anti-cancer activity in a Human ovarian cancer model. Briefly, 5 million SKOV3 cells were injected in 100 ul mixed with matrigel subcutaneously into female nude mice. The tumors were allowed to grow to 0.1 cm^3 then the mice were randomized into four groups (Vehicle, 1, 3, and 10 mg/kg/day). Each group received the indicated daily dose divided into two IP injections. Vehicle alone received the formulation only.

[4] = test system: synthesis of PAPs / heparan sulfate sulfation; settings: cited from earlier work
[5] = in vitro model of MPS IIIA, human MPS IIIA fibroblasts

| Compound | inhibition of heparan sulfate biosynthesis ([1]; human MPS IIIA fibroblasts) | GAG accumulation [1, 5] | inhibition of FGF-2 binding to heparan sulfate [2] | also measured |
| --- | --- | --- | --- | --- |
| COc1ccc(-c2cc(-c3ccccc3)nc(N3CCOCC3)n2)cc1OC [compound 1, 4-(4-(3,4-dimethoxyphenyl)-6-phenylpyrimidin-2-yl)morpholine] | inhibition of heparan sulfate biosynthesis | reduce GAG accumulation | inhibition of FGF-2 binding |  |
| Cc1ccc2ccc(C(Nc3ccccn3)c3cccc(Cl)c3)c(O)c2n1 (stereo not drawn) [compound 2, 7-((3-chlorophenyl)(pyridin-2-ylamino)methyl)-2-methylquinolin-8-ol] |  |  | inhibition of FGF-2 binding |  |
| Cc1ccc2ccc(C(Nc3ccccn3)c3ccccc3F)c(O)c2n1 (stereo not drawn) [compound 3, 7-((2-fluorophenyl)(pyridin-2-ylamino)methyl)-2-methylquinolin-8-ol] |  |  | inhibition of FGF-2 binding |  |
| CC(C)C(=O)NC(c1cccs1)c1cc([N+](=O)[O-])c2cccnc2c1O (stereo not drawn) [compound 5, 7-((thiophen-2-yl)(isobutoylamino)methyl)-5-nitroquinolin-8-ol] | inhibition of heparan sulfate biosynthesis | reduce GAG accumulation | inhibition of FGF-2 binding |  |
| CCc1cc(=O)oc2cc(Oc3ccc([N+](=O)[O-])cc3C(F)(F)F)ccc12 [compound 6, 4-ethyl-7-(4-nitro-2-(trifluoromethyl)phenoxy)-2H-chromen-2-one] |  |  | inhibition of FGF-2 binding |  |
| CC(C)(C)C1CCc2c(sc3nc(C(F)(F)F)[nH]c(=O)c23)C1 (stereo not drawn) [compound 7] | inhibition of heparan sulfate biosynthesis | reduce GAG accumulation | inhibition of FGF-2 binding |  |
| O=C(NC(=S)N(Cc1ccccc1)Cc1ccccc1)c1cccc(Cl)c1 [compound 8] | inhibition of heparan sulfate biosynthesis | reduce GAG accumulation | inhibition of FGF-2 binding |  |
| C[S+]([O-])c1ccc(-c2nc(-c3ccc(F)cc3)c(-c3ccncc3)[nH]2)cc1 (stereo not drawn) [compound 9] |  |  |  | heparan sulfate biosynthesis in liver (heparan sulfate; liver of treated animals, after sacrifice, 1, 3 and 10 mg/kg/day IP): altered in the liver of treated animals in a dose dependent manner; changes in the structure of heparan sulfate in tumor (heparan sulfate; small tumor remaining in treated animals, after sacrifice): No changes were detected; 6-O sulfation of heparan sulfate [3]: inhibits the 6-O sulfation of heparan sulfate; tumor growth (SKOV3 cells): blocked tumor growth at all doses tested |
| [Na+].[O-][Cl+2]([O-])[O-] [sodium chlorate, reference compound] |  | reduction of GAG accumulation |  | GAG accumulation ([1]; in vitro model of MPS I): reduction of GAG accumulation; GAG accumulation ([1]; in vitro model of MPS II): reduction of GAG accumulation; synthesis of PAPs (sulfate donor) ([4]; 30-60 mM): inhibits the synthesis of PAPs; sulfation of heparan sulfate produced by cells ([4]; cells grown in the presence of the substance): reduced sulfation |

Source: patent US20100048638A1, “HEPARAN SULFATE INHIBITORS” (ZACHARON PHARMACEUTICALS, INC., priority 2008, published 2010)
